According to PubChem BioAssay (NCI):
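Step 1: Grow cells in 96-well plates. Step 2: Expose to compound for 48 hours at 5 concentrations. Step 3: Interpolate endpoints linearly; if unreached, use highest concentration. TGI denotes the concentration required for complete inhibition of growth.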

Columns and labels:
Assay in all cases: DTP human tumour cell line panel, 48 h
MOLT-4 leukemia = system: MOLT-4 leukemia
SW-620 colon = system: SW-620 colon
SF-539 CNS = system: SF-539 CNS
SF-295 CNS = system: SF-295 CNS
LOX IMVI melanoma = system: LOX IMVI melanoma
NCI-H23 lung = system: NCI-H23 lung
786-0 renal = system: 786-0 renal
HS 578T breast = system: HS 578T breast
UACC-257 melanoma = system: UACC-257 melanoma
RPMI-8226 leukemia = system: RPMI-8226 leukemia
A549 NSCLC = system: A549 NSCLC

SMILES | TGI (MOLT-4 leukemia) [µM] | TGI (SW-620 colon) [µM] | TGI (SF-539 CNS) [µM] | TGI (SF-295 CNS) [µM] | TGI (LOX IMVI melanoma) [µM] | TGI (NCI-H23 lung) [µM] | TGI (786-0 renal) [µM] | TGI (HS 578T breast) [µM] | TGI (UACC-257 melanoma) [µM] | TGI (RPMI-8226 leukemia) [µM] | TGI (A549 NSCLC) [µM]
COc1cc2nc(-c3cccs3)nc(Nc3ccccc3C(=O)NN)c2cc1OC | > 100 | > 100 | > 100 | > 100 | > 100 | > 100 | > 100 | > 100 | > 100 | > 100 | > 100
O=C(CSc1nc2ccc(I)cc2c(=O)n1Cc1ccccc1)Nc1ccccc1 | > 100 | > 100 | 10.6 | 66.7 | > 100 | > 100 | 23.9 | 17 |  | > 100 | > 100
C[Si](C)(C)OC1(C#N)c2ccccc2CCCC12CCCC2 (configuration not stated) | 61.7 | > 100 | > 100 | > 100 | 49.6 | > 100 | > 100 | > 100 | 58.3 | 51.5 | > 100
CSc1nnnc2ccccc12 | > 100 | > 100 | > 100 | > 100 | > 100 | > 100 | > 100 | > 100 | > 100 | > 100 | > 100
CCn1c(CCCc2nc3c([nH]2)c(=O)n(C)c(=O)n3C)nc2c1c(=O)n(C)c(=O)n2C | > 100 | > 100 | 30.5 | > 100 | > 100 | > 100 | > 100 | > 100 | > 100 | > 100 | > 100
O=C(CCCCCNC(=O)c1ccc(Cl)cc1)NO | > 100 | > 100 | > 100 | 36.1 | 17 | 51.5 | 39 | > 100 | 14.5 | > 100 | 81.9
Cc1cc2nc3c(C#N)c(C)c(CCCl)c(Cl)n3c2cc1C | 6.95 | 5.79 | 5.09 | 13.8 | 2.88 | 5.29 | 3.69 | > 29.6 | 5.02 | 5.49 | 17.7
O=S(=O)(O)c1ccc(O)c(N=Nc2c(O)ccc3ccccc23)c1 | > 100 | > 100 |  | > 100 | > 100 | > 100 | > 100 | > 100 | > 100 | > 100 | > 100
NS(=O)(=O)c1nnc(NS(=O)(=O)c2cccc3cccnc23)s1 | > 100 | > 100 | > 100 | > 100 | > 100 | > 100 | > 100 | > 100 | > 100 | > 100 | > 100
COCC(C#N)NC1CC(OC2CC(O)(C(=O)CO)Cc3c(O)c4c(c(O)c32)C(=O)c2c(OC)cccc2C4=O)OC(C)C1O (configuration not stated) | 0.0471 | 4.8 | 0.365 | 1.9 | 0.599 | 0.682 | 1.77 | 1.32 | 0.368 | 1.15 | 
C=CC(=O)N1C/C(=C\c2ccc(OC)cc2)C(=O)/C(=C/c2ccc(OC)cc2)C1 | > 27.8 | 8.02 | 3.53 | 6.98 | 3.37 | 4.79 | 4.17 | > 28.7 | > 31.6 | > 100 | 8.16
Cc1cn(C2CC(O)C(Cn3nncc3Cn3nc(Br)c(=O)[nH]c3=O)O2)c(=O)[nH]c1=O (configuration not stated) | > 100 | > 100 | > 100 | > 100 | > 100 | > 100 | > 100 | > 100 | > 100 | > 100 | > 100
CCOC(=O)Cc1[nH]c(C(=O)c2ccccc2)cc1C(=O)c1ccccc1 | 85.7 | > 100 |  | > 10 | > 100 | 33.4 | > 10 | > 100 | > 10 | > 10 | 66.8
N#CCCN(CCCCN(CCC#N)C(=O)Nc1ccccc1)C(=O)Nc1ccccc1 | > 100 | > 100 |  | > 100 | > 100 | > 100 | > 100 | > 100 |  | > 100 | > 100
Cc1ccc(/C=c2\c(=O)[nH]c3nc4ccccc4c(=O)n23)cc1 | > 100 | 48.8 | 43.7 | > 100 | > 100 | > 100 | > 100 | > 100 | > 100 | > 100 | > 100
CCOC(=O)c1nc2ccccc2nc1Nc1ccc(C(=O)OC)s1 | > 100 | > 100 | > 100 | > 100 | > 100 | > 100 | > 100 | > 100 | > 100 | > 100 | > 100
Clc1nc2nc(N3CCNCC3)nc(N3CCCC3)c2[nH]1 | 43.1 | 45.4 | 33.8 | 38.2 | 29.4 | 32 | 32.1 | > 100 | 37.1 | 48 | 33.1
N=c1ncn(C/C=C/c2ccccc2)c2nc[nH]c12 | 36.5 | > 100 | > 100 | > 100 | > 100 | > 100 | > 100 | > 100 | > 100 | > 100 | > 100
COC1C(O)C(C)OC(O[C@H]2CC[C@@]3(C)C(CC[C@@H]4[C@@H]3CC[C@]3(C)[C@@H](C(C)OC5OC(CO)C(O)C(O)C5O)CC[C@]43O)C2)C1O (some centres not stated) | > 25 | > 25 | > 25 | > 25 | > 25 | > 25 | > 25 | > 25 | > 25 | > 25 | > 25
CC(C)(C)OC(=O)N1C(=O)C2CCCC21 (configuration not stated) | > 100 | > 100 |  |  | > 100 | > 100 | > 100 | > 100 | > 100 | > 100 | > 100
